Like-named read-outs stand apart in the source and are kept apart here.
How the values were obtained:
[1] = tested on: D423 (ENO1–/–) glioma cells; assay: In vitro cytotoxicity of prodrugs, three-cell line assay
[2] = tested on: D423 ENO1 (ENO1-isogenic rescue) glioma cells; assay: as above
[3] = 80% DMEM, 20% D2O, 31P NMR
[4] = 20% D2O, 31P NMR; for hydrolysis in human serum/plasma: 80% human plasma/serum
[5] = tested on: LN319 (ENO1+/+) glioma cells; conditions: read-out: IC50 LN319 (ENO1+/+); 6 day treatment
[6] = tested on: ENO1–/– intracranial orthotopic tumors; conditions: cited from earlier work; for effect on ENO1–/– intracranial orthotopic tumors: mice, 6: 10 mg/kg IV and IP, 5: 150 mg/kg IV and 100 mg/kg IP
[7] = tested on: LN319 (ENO1+/+) glioma cells; assay: cells; conditions: LN-319, 144 h, read-out: IC50 LN319 (ENO1+/+), 6 day treatment
NCI-60 cell line panel = assay type: cell-based; conditions: 10 μM, 24 h
[8] = Glioma cell, 144 h, read-out: IC50 D423 (ENO1–/–), 6 day treatment
[9] = read-out: IC50 D423 (ENO1–/–), 6 day treatment
[10] = Glioma cell, 144 h, read-out: IC50 D423 (ENO1–/–), 1% O2 (hypoxic), 6 days

**Q.** For `O=C1C(P(=O)(NCc2ccccc2)Oc2ccc(F)cc2)CCCN1O` (stereo not drawn) [compound 26, 4-Fluorophenyl N-Benzyl-P-(1-hydroxy-2-oxopiperidin-3-yl)phosphonamidate], which IC50 [1, 8] is on record?
**A.** Its IC50 is greater than 100 µM.

**Q.** What about the IC50 ([2]; Glioma cell, 144 h, read-out: IC50 D423 ENO1 (ENO1-tg), 6 day treatment) of the same molecule?
**A.** The IC50 was greater than 100 µM.

**Q.** With `CC(C)C(=O)ON1CCCC(P2(=O)OCc3ccccc3O2)C1=O` (stereo not drawn) [compound 30, 3-(2-Oxido-4H-benzo[d][1,3,2]dioxaphosphinin-2-yl)-2-oxopiperidin-1-yl Isobutyrate] as the molecule, how does the “time by which no intact prodrug is present in cell culture media” value [3] read?
**A.** Its value is no more than 3 h.

**Q.** What about the “time by which no intact prodrug is detectable in human plasma/serum” value ([4]; 80% human plasma, 37 °C) of the same molecule?
**A.** The value was no more than 3 h.

**Q.** What does the source list for `CC(C)OC(=O)[C@H](C)NP(=O)(Oc1ccccc1)C1CCCN(O)C1=O` (stereo partly drawn) [compound 17]?
**A.** time prodrug remains stable/intact in human serum/plasma ([4]; 80% human plasma, 37 °C): over 9 h; hydrolysis in human serum/plasma [4]: incomplete even after 336 h

**Q.** What does the source list for “Bis(cyanomethyl)(1-hydroxy-2-oxopiperidin-3-yl)phosphonate [compound 29]”?
**A.** IC50 [1, 9]: > 100 µM; IC50 [5]: > 100 µM; t1/2 in human plasma ([4]; 80% human plasma, 37 °C): approximately 10 h

**Q.** For “Cyanomethyl N-Benzyl-P-(1-hydroxy-2-oxopiperidin-3-yl)phosphonamidate [compound 25]”, which IC50 [1, 9] is on record?
**A.** Its IC50 is 6.68 µM.

**Q.** And the IC50 ([1]; read-out: IC50 in D423 cells, 6 day treatment)?
**A.** The IC50 was roughly 7 µM.

**Q.** And the IC50 ([2]; read-out: IC50 D423 ENO1 (ENO1-tg), 6 day treatment)?
**A.** The IC50 was greater than 70 µM.

**Q.** With `CC(=O)ON1CCCC(P(=O)(NCc2ccccc2)OCc2ccc([N+](=O)[O-])o2)C1=O` (stereo not drawn) [compound 24] as the molecule, how does the IC50 [1, 10] read?
**A.** The IC50 was 0.136 µM.

**Q.** Which IC50 [1, 8] does the source give for `CC(C)(C)C(=O)OCOP(=O)(NCc1ccccc1)C1CCCN(O)C1=O` (stereo not drawn) [20b] here?
**A.** The IC50 was 0.243 µM.

**Q.** For `CC(C)OC(=O)[C@H](C)NP(=O)(OCOC(=O)C(C)(C)C)C1CCCN(O)C1=O` (stereo partly drawn) [20o], which IC50 [1, 8] is on record?
**A.** The IC50 was 0.202 µM.

**Q.** With `O=C1C(P(=O)(O)O)CCCN1O` (stereo not drawn) [compound 5] as the molecule, how does the “effect on ENO1–/– intracranial orthotopic tumors” value [6] read?
**A.** The value was “profound tumor regression”.

**Q.** What about the IC50 [7] of the same molecule?
**A.** The IC50 was greater than 300 µM.

**Q.** Which results are given for `CC(C)(C)C(=O)OCOP(=O)(OCOC(=O)C(C)(C)C)C1CCCN(O)C1=O` (stereo not drawn) [compound 6, POMHEX]?
**A.** IC50 [1, 10]: 0.201 µM; IC50 ([1]; Glioma cell, 144 h, read-out: IC50 D423 (ENO1–/–), 21% O2, 6 days): 0.079 µM; drug-related adverse events ([6]; 50 day in vivo evaluation): no drug-related adverse events were observed; effect on ENO1–/– intracranial orthotopic tumors [6]: profound tumor regression; hydrolysis in human serum/plasma [4]: rapidly hydrolyzed to the mono-POM ester intermediate

**Q.** With `CC(C)OC(=O)[C@H](C)N[P@](=O)(CO[C@H](C)Cn1cnc2c(N)ncnc21)Oc1ccccc1` [TAF, tenofovir alafenamide, reference compound] as the molecule, how does the “hydrolysis in human serum/plasma” value [4] read?
**A.** Its value is “occurs rapidly”.

**Q.** Which “Average % Growth: Melanoma” value (NCI-60 cell line panel) does the source give for `CCCCCCCCCCCCCCCCOCCCOP(=O)(O)C1CCCN(O)C1=O` (stereo not drawn) [compound 28] here?
**A.** The value was 5%.

From article PMC9620261 (Journal of Medicinal Chemistry, 2022)
